Measurements reported in ChEMBL document CHEMBL6182918, “Developing Dual-State Emission Berberine Derivatives as Theranostic Agents by Reducing Nonradiative Transition Pathways” (J Med Chem, 2025).
Active and inactive are the calls of the source. No cut-off for these calls is given here.

Experiments:
Staphylococcus aureus [1] = experiment: Antibacterial activity against Staphylococcus aureus infected in mouse assessed as reduction in pyosis in wounds at 50 ug/ml measured on day 1; format: functional, organism-based; details: dose 50.0 µg/ml, time 1.0 day
[2] = Stability of the compound in the solution assessed as fluorescence intensity measured after 28 mins of light exposure by fluorescence based analysis; format: physicochemical; details: read-out: Stability
Staphylococcus aureus [3] = experiment: Photodynamic antibacterial activity against Staphylococcus aureus infected in mouse assessed as reduction in bacterial count in wounds at 50 ug/ml pretreated with compound followed by LED light irradiation for 30 mins and on day 5 the infected tissue harvested and cultured on LB agar plate and measured after 24 hrs by plate count method; format: functional, organism-based; details: dose 50.0 µg/ml, time 6.0 day
Staphylococcus aureus [4] = experiment: Photodynamic antibacterial activity against Staphylococcus aureus infected in mouse assessed as reduction in pyosis in wounds at 50 ug/ml pretreated with compound followed by LED light irradiation for 30 mins and measured on day 1; format: functional, organism-based; details: dose 50.0 µg/ml, time 1.0 day
Staphylococcus aureus [5] = experiment: Photodynamic antibacterial activity against Staphylococcus aureus infected in mouse assessed as reduction in neutrophils content in wounds at 50 ug/ml and measured on day 3 by Hematoxylin-Eosin staining based analysis; format: functional, organism-based; details: dose 50.0 µg/ml, time 3.0 day
Staphylococcus aureus [6] = experiment: Photodynamic antibacterial activity against Staphylococcus aureus ATCC 25923 assessed as log reduction in colony forming units at 50 ug/ml preincubated for 5 mins in PBS followed by light irradiation for 20 mins and later cultured on LB agar plate for 18 hrs by plate-count method; format: functional; details: dose 50 µg/ml; time 1105 min; 18.42 h
[7] = Aqueous solubility of the compound relative to berberine; format: physicochemical; details: buffer
Escherichia coli [8] = experiment: Antibacterial activity against Escherichia coli assessed as inhibition of bacterial growth by CLSI based broth microdilution method; format: functional, organism-based
Staphylococcus aureus [9] = experiment: Antibacterial activity against Staphylococcus aureus ATCC 25923 assessed as reduction in colony forming units at 50 ug/ml preincubated for 5 to 20 mins in PBS followed by culturing on LB agar plate for 18 hrs by plate-count method; format: functional, organism-based; details: dose 50.0 µg/ml, time 1085-1100 min
Staphylococcus aureus [10] = experiment: Antibacterial activity against Staphylococcus aureus assessed as inhibition of bacterial growth by CLSI based broth microdilution method; format: functional
Staphylococcus aureus [11] = experiment: Photodynamic antibacterial activity against Staphylococcus aureus ATCC 25923 assessed as reduction in colony forming units at 50 ug/ml preincubated for 5 mins in PBS followed by light irradiation for 5 to 20 mins and later cultured on LB agar plate for 18 hrs by plate-count method; format: functional, organism-based; details: dose 50.0 µg/ml, time 1090-1105 min
Escherichia coli [12] = experiment: Photodynamic antibacterial activity against Escherichia coli EHEC assessed as reduction in colony forming units at 50 ug/ml preincubated for 5 mins in PBS followed by light irradiation for 20 mins and later cultured on LB agar plate for 18 hrs by plate-count method; format: functional, organism-based; details: dose 50.0 µg/ml, time 1105.0 min
[13] = Induction of ROS generation in aqueous solution assessed as hydroxyl radical generation (.OH) at 10 ug/ml pretreated with compound followed by light irradiation for 28 mins by fluorescence based analysis; format: functional; details: dose 10.0 µg/ml
[14] = Induction of ROS generation in aqueous solution assessed as singlet oxygen generation (1O2) at 10 ug/ml pretreated with compound followed by light irradiation for 28 mins by fluorescence based analysis; format: functional; details: dose 10.0 µg/ml
Staphylococcus aureus [15] = experiment: Antibacterial activity against Staphylococcus aureus ATCC 29213 assessed as inhibition of bacterial growth by CLSI based broth microdilution method; format: functional, organism-based
Cell membrane [16] = experiment: Disruption of inner cell membrane in Staphylococcus aureus assessed as increase in cell permeability by measuring increase in PI fluorescence intensity at 12.5 to 50 ug/ml measured after light irradiation by PI based fluorescence based analysis; format: subcellular; details: dose 12.5-50 µg/ml
[17] = Drug uptake in Staphylococcus aureus assessed as increase in bacterial imaging at 10 ug/ml by laser scanning confocal microscopic analysis; format: ADME; details: dose 10 µg/ml
Staphylococcus aureus [18] = experiment: Antibacterial activity against Staphylococcus aureus ATCC 25923 assessed as viable cells with tiny amount of PI emission at 10 ug/ml measured under dark conditions by PI co-staining based fluorescence analysis; format: functional, organism-based; details: dose 10.0 µg/ml
Staphylococcus aureus [19] = experiment: Photodynamic antibacterial activity against Staphylococcus aureus ATCC 700699 assessed as reduction in colony forming units at 50 to 100 ug/ml preincubated for 5 mins in PBS followed by light irradiation for 20 mins and later cultured on LB agar plate for 18 hrs by plate-count method; format: functional, organism-based; details: dose 50-100 µg/ml, time 1105.0 min
Cell membrane [20] = experiment: Binding affinity to cell membrane in Staphylococcus aureus assessed as membrane potential collapse at 25 to 50 ug/ml by measuring increase in fluorescence intensity measured after light irradiation by Rhodamine123 staining based fluorescence analysis; format: subcellular; details: dose 25-50 µg/ml
Staphylococcus aureus [21] = experiment: Photodynamic antibacterial activity against Staphylococcus aureus infected in mouse assessed as reduction in pyosis in wounds at 50 ug/ml pretreated with compound followed by LED light irradiation for 30 mins and measured on day 5; format: functional, organism-based; details: dose 50.0 µg/ml, time 5.0 day
Staphylococcus aureus [22] = experiment: Photodynamic antibacterial activity against Staphylococcus aureus ATCC 29213 assessed as reduction in colony forming units at 50 ug/ml preincubated for 5 mins in PBS followed by light irradiation for 20 mins and later cultured on LB agar plate for 18 hrs by plate-count method; format: functional, organism-based; details: dose 50.0 µg/ml, time 1105.0 min
[23] = Drug uptake in Staphylococcus aureus ATCC 25923 measured after washing by absorbance based analysis; format: ADME
[24] = Drug uptake in Escherichia coli EHEC measured after washing by absorbance based analysis; format: ADME
Staphylococcus aureus [25] = experiment: Photodynamic antibacterial activity against Staphylococcus aureus infected in mouse assessed as reduction in pyosis in wounds at 50 ug/ml pretreated with compound followed by LED light irradiation for 30 mins and measured on day 3; format: functional, organism-based; details: dose 50.0 µg/ml, time 3.0 day
Staphylococcus aureus [26] = experiment: Photodynamic bactericidal activity against Staphylococcus aureus assessed as appearance of broken and shrunk bacterial cells at 50 ug/ml pretreated for 5 mins followed by light irradiation for 20 mins SEM analysis; format: functional, organism-based; details: dose 50.0 µg/ml, time 25.0 min
DNA [27] = experiment: Binding affinity to Staphylococcus aureus DNA assessed as change in absorbance spectrum by absorbance based analysis; format: nucleic-acid assay
Staphylococcus aureus [28] = experiment: Photodynamic antibacterial activity against Staphylococcus aureus ATCC 25923 assessed as reduction in colony forming units at 50 to 100 ug/ml preincubated for 5 mins in PBS followed by light irradiation for 20 mins and later cultured on LB agar plate for 18 hrs by plate-count method; format: functional, organism-based; details: dose 50-100 µg/ml, time 1105.0 min
Escherichia coli [29] = experiment: Photodynamic antibacterial activity against Escherichia coli EPEC assessed as reduction in colony forming units at 50 ug/ml preincubated for 5 mins in PBS followed by light irradiation for 20 mins and later cultured on LB agar plate for 18 hrs by plate-count method; format: functional, organism-based; details: dose 50.0 µg/ml, time 1105.0 min
DNA [30] = experiment: Binding affinity to Staphylococcus aureus DNA assessed as induction of genomic DNA degradation measured after 20 mins of light irradiation by absorbance based analysis; format: nucleic-acid assay; details: dose 12.5-100 µg/ml
Staphylococcus aureus [31] = experiment: Photodynamic antibacterial activity against Staphylococcus aureus ATCC 43300 assessed as reduction in colony forming units at 50 to 100 ug/ml preincubated for 5 mins in PBS followed by light irradiation for 20 mins and later cultured on LB agar plate for 18 hrs by plate-count method; format: functional, organism-based; details: dose 50-100 µg/ml, time 1105.0 min
[32] = Drug uptake in Staphylococcus aureus ATCC 43300 measured after washing by absorbance based analysis; format: ADME
Cell membrane [33] = experiment: Disruption of cell membrane in Staphylococcus aureus assessed as increase in membrane depolarization by measuring increase in fluorescence intensity measured after light irradiation by DiBAC4(3) based fluorescence analysis; format: subcellular; details: dose 25-100 µg/ml
[34] = Drug uptake in Escherichia coli assessed as increase in bacterial imaging at 10 ug/ml by laser scanning confocal microscopic analysis; format: ADME; details: dose 10 µg/ml
Staphylococcus aureus [35] = experiment: Photodynamic antibacterial activity against Staphylococcus aureus ATCC 43300 assessed as reduction in colony forming units at 50 ug/ml preincubated for 5 mins in PBS followed by light irradiation for 20 mins and later cultured on LB agar plate for 18 hrs by plate-count method; format: functional, organism-based; details: dose 50.0 µg/ml, time 1105.0 min
Staphylococcus aureus [36] = experiment: Photodynamic antibacterial activity against Staphylococcus aureus ATCC 29213 assessed as reduction in colony forming units at 50 to 100 ug/ml preincubated for 5 mins in PBS followed by light irradiation for 20 mins and later cultured on LB agar plate for 18 hrs by plate-count method; format: functional, organism-based; details: dose 50-100 µg/ml, time 1105.0 min
Staphylococcus aureus [37] = experiment: Photodynamic antibacterial activity against Staphylococcus aureus ATCC 700699 assessed as reduction in colony forming units at 50 ug/ml preincubated for 5 mins in PBS followed by light irradiation for 20 mins and later cultured on LB agar plate for 18 hrs by plate-count method; format: functional, organism-based; details: dose 50.0 µg/ml, time 1105.0 min
Cell membrane [38] = experiment: Binding affinity to cell membrane in Staphylococcus aureus assessed as membrane potential collapse at 25 to 100 ug/ml by measuring increase in fluorescence intensity measured under dark conditions by Rhodamine123 staining based fluorescence analysis; format: subcellular; details: dose 25-100 µg/ml
Staphylococcus aureus [39] = experiment: Photodynamic antibacterial activity against Staphylococcus aureus ATCC 25923 assessed as reduction in bacterial cell viability by measuring increase in PI-stained cells at 10 ug/ml preincubated for 5 mins in PBS followed by light irradiation for 20 mins by PI co-staining based fluorescence analysis; format: functional, organism-based; details: dose 10.0 µg/ml, time 25.0 min

COc1ccc2cc3[n+](cc2c1OC)CCc1cc2c(cc1-3)OCO2.[Cl-] [BERBERINE CHLORIDE]
Activity (Staphylococcus aureus [1]): inactive | remaining at 28 min [2]: 60% | Activity (Staphylococcus aureus [3]): Active | Activity (Staphylococcus aureus [4]): inactive | Activity (Staphylococcus aureus [5]): inactive | Activity (Staphylococcus aureus [6]): 2 log10CFU/ml

CCCCN1C(=O)C(=C/C=C/C2C(=O)N(CCCC)C(=O)N(CCCC)C2=O)C(=O)N(CCCC)C1=O
remaining at 28 min [2]: 40%

COc1ccc2c(c1)CC[n+]1cc3cc(OC)ccc3cc1-2.[Cl-]
fold change (FC) [7]: ~ 10 | Activity (Escherichia coli [8]): Active; Activity Against Escherichia Coli Is Lower Than Staphylococcus Aureus | Activity (Staphylococcus aureus [9]): inactive | Activity (Staphylococcus aureus [10]): Active | Activity (Staphylococcus aureus [11]): Time-dependent-effect | Activity (Staphylococcus aureus [6]): 4.5 log10CFU/ml | Activity (Escherichia coli [12]): inactive | Activity [13]: Active | Activity [14]: Active

COc1ccc2c(c1)CC[n+]1cc3ccccc3cc1-2
Activity [13]: inactive | Activity [14]: inactive

COc1ccc2c(c1)CC[n+]1cc3cc4c(cc3cc1-2)OCO4
Activity [13]: Active | Activity [14]: Active

COc1cccc2cc3[n+](cc12)CCc1cc2c(cc1-3)OCO2.[Cl-]
Activity (Staphylococcus aureus [15]): Active | Activity (Staphylococcus aureus [9]): inactive | Activity (Staphylococcus aureus [6]): 4 log10CFU/ml

COc1ccc2c(c1)CC[n+]1cc3c4c(ccc3cc1-2)OCO4
Activity [13]: inactive | Activity [14]: inactive

COc1ccc2c(c1)CC[n+]1cc3c(OC)cccc3cc1-2.[Cl-]
Activity (Cell membrane [16]): Dose-dependent-effect | Drug uptake [17]: Active | fold change (FC) [7]: ~ 10 | Activity (Staphylococcus aureus [18]): inactive | remaining at 28 min [2]: ~90% | Activity (Staphylococcus aureus [3]): Active | Activity (Staphylococcus aureus [19]): Dose-dependent-effect | Activity (Cell membrane [20]): Active | Activity (Staphylococcus aureus [21]): Active; Favourable Wound Healing Status Observed | Activity (Escherichia coli [8]): Active; Activity Against Escherichia Coli Is Lower Than Staphylococcus Aureus | Activity (Staphylococcus aureus [4]): Active | Activity (Staphylococcus aureus [22]): Active; Higher Activity Compared To Bbr And Mb But Lower Activity Compared To Ce6 | Drug uptake [23]: Active | Drug uptake [24]: Not_active | Activity (Staphylococcus aureus [25]): Active; Pyosis Nearly Disappeared | Activity (Staphylococcus aureus [26]): Active | Activity (DNA [27]): Active | Activity (Staphylococcus aureus [9]): inactive | Activity (Staphylococcus aureus [28]): Dose-dependent-effect | Activity (Escherichia coli [29]): Active | Activity (DNA [30]): Dose-dependent-effect | MIC (Staphylococcus aureus [10]): 50 µg/mL | Activity (Staphylococcus aureus [11]): Time-dependent-effect | Activity (Staphylococcus aureus [31]): Dose-dependent-effect | Drug uptake [32]: Not_active | Activity (Staphylococcus aureus [6]): ~5 log10CFU/ml | Activity (Escherichia coli [12]): inactive | Activity (Cell membrane [33]): Dose-dependent-effect | Drug uptake [34]: Active | Activity (Staphylococcus aureus [35]): Active; Higher Activity Compared To Bbr And Mb But Lower Activity Compared To Ce6 | Activity [13]: Active | Activity (Staphylococcus aureus [36]): Dose-dependent-effect | Activity (Staphylococcus aureus [37]): Active; Higher Activity Compared To Bbr And Mb But Lower Activity Compared To Ce6 | Activity (Cell membrane [38]): Active | Activity [14]: Active | Activity (Staphylococcus aureus [39]): Active
